Experimental data published in patent US20020082391A1, “Human occludin, its uses and enhancement of drug absorption using occludin inhibitors” (priority 1996, published 2002).

Experiments:
[1] = test system: occludin-transfected fibroblasts (Rat-1 cell clone); assay: Cell adhesion (suspended cell aggregation) assay, occludin-transfected Rat-1 fibroblasts; assay type: cell-based; conditions: peptide at 100 μM
Procedure: For immunofluorescent localization studies, cells were grown on glass coverslips. […] MDCK cells were transfected and induced with sodium butyrate as described above and stable cells lines were plated and induced as described for immunoblots. Cells were washed with PBS, fixed in 1% paraformaldehyde in PBS, extracted with 0.1% Triton-X 100 and quenched with 50 mM NH4Cl in PBS. In experiments to test the accessibility to the anti-peptide #1 antibody, incubation of the primary antibody was performed without permeabilization of cells with Triton-X 100. […] Cell Adhesion Assay Adhesion of stably transfected cell lines was measured by a modification of the procedure described by Wesseling, J., et al., Mol. Biol. Cell 7:565-577 (1996). […] After 30 minutes, cells were mechanically dissociated, counted and resuspended at a concentration of 2.5×10^5 cells/ml in Ca^2+-Mg^2+-free PBS, 1 mM EDTA and 0.1 mg/ml DNAse. […] At each time point, the number of particles in two 175 ul aliquot of each tube was determined in a Coulter Counter (Hialeah, FL). […] 100% of cells were single at the beginning of all assays, as determined by phase-contrast microscopy. […]
The ability of transfected occludin to confer adhesion onto fibroblast cell lines was assessed using a suspended cell aggregation assay (Wesseling, J., et al., Mol. Biol. Cell 7: 565-577 (1996)). […]

[2] = test system: occludin-transfected fibroblasts (NRK cell clone, N2occ cells); assay: Cell adhesion (suspended cell aggregation) assay, occludin-transfected NRK fibroblasts (N2occ); assay type: cell-based, rat; conditions: for inhibition of occludin-induced adhesion: NRK cell clone, peptide at 100 μM, 80 minutes
Procedure: Peptides were added in equal volumes of PBS at the start of the incubation period; extent of aggregation is shown after 80 minutes of incubation. Loop peptides represent contiguous sequences in the first extracellular loop; the internal peptide has the same pI as loop peptide #1. Peptide sequences are given in the Examples section. One of three experiments with identical results is shown.
For immunofluorescent localization studies, cells were grown on glass coverslips. […] MDCK cells were transfected and induced with sodium butyrate as described above and stable cells lines were plated and induced as described for immunoblots. Cells were washed with PBS, fixed in 1% paraformaldehyde in PBS, extracted with 0.1% Triton-X 100 and quenched with 50 mM NH4Cl in PBS. In experiments to test the accessibility to the anti-peptide #1 antibody, incubation of the primary antibody was performed without permeabilization of cells with Triton-X 100. Cells were blocked for 1 hour in PBS plus 2% goat serum, incubated in primary antibodies (anti-VSV-G at 10 ug/ml, guinea pig anti-occludin at 1:250, and anti-ZO-1 at 1:300; affinity-purified anti-peptide #1 antibody at 1:10) for 1 hour, washed and incubated in affinity-purified secondary antibodies (1:100) for 1 hour. Cells were washed, dipped in H2O and mounted in Vectashield (Vector Laboratories). The samples were examined with a Nikon Microfot-FX epifluorescence microscope; photographs were taken with TMAX400 film (Kodak, Rochester, NY) using the automatic exposure setting. Cell Adhesion Assay Adhesion of stably transfected cell lines was measured by a modification of the procedure described by Wesseling, J., et al., Mol. Biol. Cell 7:565-577 (1996). Cell lines were plated and induced with sodium butyrate as described above. Cell layers were rinsed twice with Ca^2+-Mg^2+-free PBS and then incubated for 30 minutes in Ca^2+-Mg^2+-free PBS plus 1 mM EDTA and 0.1 mg/ml DNAse. After 30 minutes, cells were mechanically dissociated, counted and resuspended at a concentration of 2.5×10^5 cells/ml in Ca^2+-Mg^2+-free PBS, 1 mM EDTA and 0.1 mg/ml DNAse. For each condition, the adhesion assay was performed in duplicate in two 50-ml conical tubes on a rotating platform at 80 rpm at 25° C. At each time point, the number of particles in two 175 ul aliquot of each tube was determined in a Coulter Counter (Hialeah, FL). The amount of adhesion was represented by Nt/N0, where N0 was the initial number of particles in each sample (the starting number of single cells), and Nt was the number at each time point. 100% of cells were single at the beginning of all assays, as determined by phase-contrast microscopy. Some experiments were performed in the presence of the peptides described above.
The ability of transfected occludin to confer adhesion onto fibroblast cell lines was assessed using a suspended cell aggregation assay (Wesseling, J., et al., Mol. Biol. Cell 7: 565-577 (1996)). All cells were counted as single particles at the beginning of the assay and any decrease in the fraction of particles over the 80 minute assay was the result of aggregates which are excluded by the Coulter Counter. Aggregation was qualitatively confirmed by light microscopic inspection and correlated with results quantified by the Coulter Counter. Immunofluorescence confirmed that ZO-1 and occludin are clustered between adherent cells after the 80 minute assay. […]

[3] = test system: Caco-2 cells; assay: Transepithelial electrical resistance of Caco-2 monolayers after low calcium medium; assay type: cell-based, human; conditions: Caco-2, peptides at final concentration 100 μM, FIG. 2
Procedure: FIG. 2 is a graph showing inhibition of occludin-dependent intercellular adhesion using extracellular loop peptides corresponding to the N-terminal half of occludin extracellular loop #1 (peptide 1, SEQ ID NO 3) and the C-terminal half of extracellular loop #1 (peptide 2, SEQ ID NO 4) compared with an irrelevant peptide (peptide 3, SEQ ID NO 6). Caco-2 cells were plated on Falcon transwell cell culture inserts in DMEM supplemented with 10% fetal bovine serum and allowed to attach for 24 hours. Confluent monolayers were washed three times with calcium- and magnesium-free phosphate buffered saline and incubated in low calcium medium (supplemented with 5% dialyzed fetal bovine serum) for 24 hours. Transepithelial electrical ressitance was measured (time 0) and an equal volume of 2× DMEM/20% fetal bovine serum was added to all wells. To some wells, peptides were added with the fresh media. All peptides were added to a final concentration of 100 μM; transepithelial electrical resistance was measured in 3 wells of each treatment condition. Symbols represent the mean and standard deviation of each measurement.
Introduction of occludin into fibroblasts causes them to become adhesive. […] FIG. 2 provides data showing this same peptide inhibits transmonolayer electrical resistance in cultured human colonic epithelial cells. Thus, the peptides are occludin inhibitors.

[4] = target: T1, human occludin (human, UniProt Q16625 1-522); assay: cell-based or functional assay
T1 sequence: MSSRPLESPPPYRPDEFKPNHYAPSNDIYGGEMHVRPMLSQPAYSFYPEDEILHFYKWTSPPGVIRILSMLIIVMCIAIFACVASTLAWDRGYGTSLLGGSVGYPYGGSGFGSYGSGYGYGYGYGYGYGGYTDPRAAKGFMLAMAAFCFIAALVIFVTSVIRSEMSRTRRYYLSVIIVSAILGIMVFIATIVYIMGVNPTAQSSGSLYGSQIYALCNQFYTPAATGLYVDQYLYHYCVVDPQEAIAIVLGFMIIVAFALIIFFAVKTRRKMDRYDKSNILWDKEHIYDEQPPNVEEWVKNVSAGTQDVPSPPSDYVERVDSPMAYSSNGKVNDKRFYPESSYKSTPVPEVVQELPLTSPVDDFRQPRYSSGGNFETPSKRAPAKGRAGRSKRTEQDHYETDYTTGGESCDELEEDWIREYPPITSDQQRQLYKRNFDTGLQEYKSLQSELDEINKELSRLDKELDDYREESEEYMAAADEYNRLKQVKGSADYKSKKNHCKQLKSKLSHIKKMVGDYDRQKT

CDRGYGTSLLGGSVGYPYGGSGFG [peptide #1]
inhibition of occludin-induced adhesion [1]: completely inhibited adhesion | inhibition of occludin-induced adhesion [2]: completely inhibited adhesion | reversal of adhesion ([2]; peptide at 10 μM): approximately half | inhibition of transepithelial (transmonolayer) electrical resistance [3]: inhibition

NHYAPSNDIYGGEMVHRPML (peptide construct used in experiments) [internal occludin peptide, reference compound]
inhibiting occludin-dependent cell adhesion ([2]; same concentration range (1, 10 and 100 μM)): ineffective

CSYGSGYGYGYGYGYGYGGYTDPR [peptide #2]
inhibition of occludin-induced adhesion [1]: completely inhibited adhesion | inhibition of occludin-induced adhesion [2]: completely inhibited adhesion | Ki ([2]; fibroblast adhesion assay, peptides tested at 1, 10 and 100 μM, read-out: apparent Ki (inhibition of adhesion)): 10 to 100 µM | inhibition of transepithelial (transmonolayer) electrical resistance [3]: inhibition

CDRGYGTSLLGGSVGYPYGGSGFG [peptide #1 (N-terminal half of occludin extracellular loop #1)]
apparent Ki for inhibition of occludin-induced adhesion [4]: ~10 µM
